We go through nine compounds from ChEMBL document CHEMBL1140851, “Synthesis of new amonafide analogues via coupling reaction and their cytotoxic evaluation and DNA-binding studies” (Bioorg Med Chem, 2009).

The source made the active and inactive calls. The calls are words filed in the database; no cut-off is given here.

Experiment [1] deals with DNA. Briefly: Binding affinity to calf thymus DNA assessed as increase in viscosity of DNA by viscometric titration. Type of experiment: nucleic-acid assay. Particulars: Bos taurus.
The subject of experiment [2] is DNA. As to the kind of experiment: Binding affinity to calf thymus DNA assessed as Scatchard binding constant by fluorescence quenching technique. Format: nucleic-acid assay. The following applies: Bos taurus.
Experiment [3] has as its system DNA. Briefly: Binding affinity to calf thymus DNA assessed as circular dichroism at 10 uM. The following applies: Bos taurus. Format: nucleic-acid assay.
The subject of the next experiment is HeLa. As to the kind of experiment: Cytotoxicity against human HeLa cells after 48 hrs by MTT assay. Format: functional, cell-based. For orientation: Tetrazolium dyes change colour on reduction, which living cells bring about.
Experiment [4] concerns DNA. Briefly: Binding affinity to calf thymus DNA assessed as hypochromicity at 50 uM by UV-vis absorption spectra. Format: nucleic-acid assay. Particulars: Bos taurus.
A short description of experiment [5]: Cytotoxicity against mouse P388D1 cells after 48 hrs by MTT assay. Type of experiment: functional, cell-based. The following applies: P388D1, 48 h.

One may read the IC50 as the concentration at which inhibition is half-maximal. A lower IC50 goes with greater potency. `CN(C)CCN1C(=O)c2cccc3cc(N4CCN(C)CC4)cc(c23)C1=O`: the outcome in the experiment on DNA [1], in the experiment on DNA [3] and in the experiment on DNA [4] was Active. For the same compound, the Kb in the experiment with DNA [2] came out at 2.48 ×10⁵ /M. Moreover, the IC50 was found to be 0.43 µM with HeLa and 1.93 µM in experiment [5].
On to `CN(C)CCN1C(=O)c2cccc3cc(N)cc(c23)C1=O` [AMONAFIDE], for which the Kb with DNA [2] is 1.05 ×10⁵ /M. Besides, the IC50 with HeLa turned out to be 0.68 µM; in experiment [5], 6.02 µM.
Taken in the same sequence, the figures for `CN(C)CCN1C(=O)c2cccc3cc(NCc4cccs4)cc(c23)C1=O` were 1.06 ×10⁵ /M, 3.54 µM and 9.46 µM.
Taken in the same sequence, the figures for `CCCCNc1cc2c3c(cccc3c1)C(=O)N(CCN(C)C)C2=O` were 1.23 ×10⁵ /M, 3.24 µM and 9.42 µM.
On the same counts, the results for `CN(C)CCCNc1cc2c3c(cccc3c1)C(=O)N(CCN(C)C)C2=O` are 1.75 ×10⁵ /M, 0.23 µM and 0.71 µM.
Take `CN(C)CCN1C(=O)c2cccc3cc(N4CCOCC4)cc(c23)C1=O`: the Kb in the experiment with DNA [2] is 0.97 ×10⁵ /M. Also, the values for the half-maximal inhibitory concentration (IC50) (in the experiment with HeLa; in experiment [5]) were 0.53 µM and 9.44 µM, respectively.
In the case of `CN(C)CCN1C(=O)c2cccc3cc(N4CCCCC4)cc(c23)C1=O`, in the experiment on DNA [2], the Kb amounted to 0.85 ×10⁵ /M. Besides, the IC50 was 2.64 µM in the experiment with HeLa and 21.6 µM in experiment [5].
For the compound `CN(C)CCNc1cc2c3c(cccc3c1)C(=O)N(CCN(C)C)C2=O`, the result with DNA [1], with DNA [3] and in the experiment with DNA [4] was Active. The Kb with DNA [2] was 1.85 ×10⁵ /M. For the same compound, the IC50 with HeLa was 0.83 µM; in experiment [5], 0.62 µM.
For the compound `CN(C)CCN1C(=O)c2cccc3cc(N4CCSCC4)cc(c23)C1=O`, the Kb in the experiment on DNA [2] is 0.79 ×10⁵ /M. Moreover, the IC50 in the experiment with HeLa came out at 2.34 µM; in experiment [5], 36.3 µM.
